US9284283B2, “Macrocyclic compounds for modulating IL-17” (ENSEMBLE THERAPEUTICS CORPORATION, priority 2012, dated 2016)

Columns and labels:
[1] = target: T1, recombinant human IL17a (binding to its receptor IL17R) (Homo sapiens, UniProt Q16552); test: IL-17 competition ELISA I (IL17a coated, IL17R/Fc binding)
T1 construct: purchased R&D Systems 317-ILB (IL17a); 177-IR (IL17R/Fc)
T1 sequence (Q16552 20-155 limits assumed): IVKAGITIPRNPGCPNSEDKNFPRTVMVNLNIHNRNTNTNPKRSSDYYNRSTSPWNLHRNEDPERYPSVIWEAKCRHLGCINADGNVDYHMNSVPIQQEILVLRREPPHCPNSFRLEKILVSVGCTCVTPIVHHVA
Method in brief: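 Plates coated with 20 nM recombinant human IL17a received compound dilutions and 12 nM IL17R/Fc (final) for 30 min at room temperature. Bound receptor was detected with HRP anti-human Fc and TMB, read at 450 nm. IC50 came from a 4-parameter logistic fit between no-competitor and blank controls.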

IL17A = target: T2, IL17A (Homo sapiens, UniProt Q16552); test: Surface Plasmon Resonance (SPR) analysis of compound interactions with IL17A; settings: SPR binding to IL17A
T2 sequence (Q16552 24-155): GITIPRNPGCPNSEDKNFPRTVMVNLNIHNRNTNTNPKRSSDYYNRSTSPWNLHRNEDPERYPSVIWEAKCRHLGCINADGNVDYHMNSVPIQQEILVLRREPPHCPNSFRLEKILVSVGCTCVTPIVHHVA
Experimental: SPR analysis was carried out with a GE Healthcare (Piscataway, N.J.) Biacore X100 system. Typically, the chip (NTA Biacore Biosensor chip; GE Healthcare BR-1000-34) was first conditioned by injection of 0.35 M EDTA, which also served to remove any immobilized proteins from previous runs. Before immobilization of the recombinant 6-His-tagged IL17, the chip was washed with 0.5 mM nickel chloride in NTA buffer (10 mM HEPES buffer, 0.15 M sodium chloride, 10 μM ethylene diamine tetraacetic acid, 0.005% v/v surfactant P20 (GE Healthcare BR-1000-54)) to form a nickel chelate on the chip. IL17 protein was immobilized onto a NTA chip through its 6-His tag. IL17A was typically injected at 0.25 μM for 60-120 seconds, followed by a stabilization step washing with NTA+0.5% DMSO for 120 seconds or longer.
Five 2-fold or 3-fold serial dilutions of test compound were injected serially onto the chip. All steps were conducted using NTA buffer containing 0.5% v/v dimethylsulfoxide (DMSO). Compounds were diluted from stock solutions of 10 mM concentration in 100% DMSO with NTA buffer to obtain 50 μM solutions in NTA+0.5% DMSO. Subsequent 2× or 3× dilutions were made in NTA+0.5% DMSO. Compound was generally injected for 180 seconds followed by washing the chip in buffer alone for 120 seconds. The rate of refractive index change (RU units/time) and the maximum extend of RU change was measured during the “on” phase of analyte injection, followed by measuring the rate during the “off” phase.
Kinetic parameter fits were conducted using the Biacore SPR Evaluation Program (GE Healthcare) for 1:1 molecular binding fits, after subtracting the baseline average of 2 or more runs in which no analyte was injected. This program then reports the best fit average for the “on” rate (Ka), the “off” rate (Kd) and the dissociation constant (KD) (Chaiken, I et al., Anal Biochem 201, 197-210 (1992)). A separate program in the Biacore SPR Evaluation Program then calculates the best fit for Kd based upon the extent of binding alone (RU units bound) at each concentration of analyte and reports the best fit Kd by best fit to a Lineweaver-Burke plot. Typically, the Kd value calculated through both means agreed within a factor of three.
The presence and activity of IL17 on the NTA chip was routinely confirmed three ways: • 1) An increase in response units (RU) upon immobilization confirms that the IL17 was immobilized on the chip; • 2) Anti-IL17 was also injected on the chip to confirm the presence of IL17; and • 3) IL17R was injected onto the chip to confirm that the immobilized IL17 retained its binding activity for its receptor. Negative controls to access specificity for compound binding were conducted by immobilizing unrelated, but his-tagged, proteins (such as cyclophilin D) and conducting the same analysis as done with IL17A.

[2] = target: T3, biotinylated human IL-17 (binding to IL17R/Fc) (Homo sapiens, UniProt Q16552); test: IL-17 competition ELISA II (captured IL17R/Fc, biotinylated IL-17)
T3 construct: purchased R&D Systems 317-ILB (IL-17, biotinylated); 177-IR (IL17R/Fc)
T3 sequence (Q16552 20-155 limits assumed): T1 sequence (Q16552 20-155 limits assumed)
Method in brief: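 Anti-human IgG-coated plates captured IL17R/Fc (10 nM), then compound (5-fold dilutions from 1 μM) and biotinylated human IL-17 (20 nM stock) were added for 30 min at room temperature in PBST. Bound IL-17 detected by streptavidin-HRP/TMB at 450 nm. IC50 from 4-parameter logistic fit between no-competitor and blank controls.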

IC50 [1] [nM]	Kd (IL17A) [nM]	IC50 [2] [nM]	Structure (SMILES)
< 100	< 100		O=C1CCCNC(=O)[C@@H](Cc2ccc(NC(=O)[C@H](Cc3ccccc3Cl)NC(=O)Cc3ccccc3)cc2)NC(=O)CC2(CCCC2)CC(=O)NCCCN1 [Compound 158]
< 100	< 100		O=C1CCNC(=O)[C@@H](Cc2ccc(NC(=O)[C@H](Cc3ccccc3Cl)NC(=O)Cc3ccccc3)cc2)NC(=O)CC2(CCCC2)CC(=O)NCCCCN1 [Compound 164]
	< 100		O=C1CCCNC(=O)[C@@H](Cc2ccc(NC(=O)[C@H](Cc3ccccc3Cl)NC(=O)Cc3ccccc3)cc2)NC(=O)CC2(CCCC2)CC(=O)NCCCCN1 [Compound 166]
	< 100		CC(=O)N[C@@H](Cc1ccccc1Cl)C(=O)Nc1ccc(C[C@H]2NC(=O)CC3(CCCC3)CC(=O)NCCCCNC(=O)CCCNC2=O)cc1 [Compound 167]
	< 100		O=C1CCNC(=O)[C@@H](Cc2ccc(NC(=O)[C@H](Cc3ccccc3Cl)NC(=O)Cc3ccccc3)cc2)NC(=O)CC2(CCCC2)CC(=O)N(CCO)CCCCCN1 [Compound 170]
	< 100		CC(=O)N[C@@H](Cc1ccccc1Cl)C(=O)Nc1ccc(C[C@H]2NC(=O)CC3(CCCC3)CC(=O)N(CCO)CCCCCNC(=O)CCNC2=O)cc1 [Compound 171]
	< 100		O=C1CCCNC(=O)[C@@H](Cc2ccc(NC(=O)[C@H](Cc3ccccc3Cl)NC(=O)Cc3ccccc3)cc2)NC(=O)CC2(CCCC2)CC(=O)N(CCO)CCCCCN1 [Compound 172]
	< 100		CC(=O)N[C@@H](Cc1ccccc1Cl)C(=O)Nc1ccc(C[C@H]2NC(=O)CC3(CCCC3)CC(=O)N(CCO)CCCCCNC(=O)CCCNC2=O)cc1 [Compound 173]
	100 to 1000		O=C1CCCNC(=O)[C@H](Cc2ccc(NC(=O)[C@H](Cc3ccccc3F)NC(=O)Cc3ccccc3)cc2)NC(=O)CC2(CCCC2)CC(=O)N[C@H](C(=O)O)CCCCN1 [Compound 174]
	100 to 1000		O=C1CCCNC(=O)[C@@H](Cc2ccc(NC(=O)[C@H](Cc3ccccc3F)NC(=O)Cc3ccccc3)cc2)NC(=O)CC2(CCCC2)CC(=O)N[C@H](C(=O)O)CCCCN1 [Compound 175]
	100 to 1000		O=C1CCCNC(=O)[C@@H](Cc2ccc(NC(=O)[C@H](Cc3ccccc3F)NC(=O)Cc3ccccc3)cc2)NC(=O)CC2(CCCC2)CC(=O)N[C@@H](C(=O)O)CCCCN1 [Compound 176]
	100 to 1000		O=C1CCCNC(=O)[C@@H](Cc2ccc(NC(=O)[C@H](Cc3ccc(-c4ccccc4)cc3)NC(=O)c3ccccc3)cc2)NC(=O)CC2(CCCC2)CC(=O)N[C@H](C(=O)O)CCCCN1 [Compound 178]
	100 to 1000	< 100	O=C1CC2(CCCC2)CC(=O)N[C@H](Cc2ccc(NC(=O)[C@H](Cc3ccccc3F)NC(=O)Cc3ccccc3)cc2)C(=O)NCCCC[C@@H](C(=O)O)N1 [Compound 179]
	100 to 1000		CC1(C)NC(=O)[C@@H](Cc2ccc(NC(=O)[C@H](Cc3ccccc3Cl)NC(=O)Cc3ccccc3)cc2)NC(=O)CC2(CCCC2)CC(=O)N[C@@H](C(=O)O)CCCCNC1=O [Compound 182]
1000 to 10000	100 to 1000		O=C1CNC(=O)[C@@H](Cc2ccc(NC(=O)[C@H](Cc3ccc(O)cc3)NC(=O)Cc3ccccc3)cc2)NC(=O)CC2(CCCC2)CC(=O)NCCCCCN1 [Compound 183]
1000 to 10000	100 to 1000		CN1CC(=O)NCCCCCNC(=O)CC2(CCCC2)CC(=O)N[C@H](Cc2ccc(NC(=O)[C@H](Cc3ccccc3Cl)NC(=O)Cc3ccccc3)cc2)C1=O [Compound 188]
	< 100		O=C1CNC(=O)[C@@H](Cc2ccc(NC(=O)[C@H](Cc3ccc(O)cc3)NC(=O)Cc3ccc(O)cc3)cc2)NC(=O)CC2(CCCC2)CC(=O)NCCCCCN1 [Compound 189]

IC50 [1] [nM]	Kd (IL17A) [nM]	IC50 [2] [nM]	Structure (SMILES)
	100 to 1000		O=C1CNC(=O)[C@@H](Cc2ccc(NC(=O)[C@H](Cc3c(F)cccc3F)NC(=O)Cc3ccc(O)cc3)cc2)NC(=O)CC2(CCCC2)CC(=O)NCCCCCN1 [Compound 190]
100 to 1000	< 100		CN1CC(=O)NCCCCCNC(=O)CC2(CCCC2)CC(=O)N[C@H](Cc2ccc(NC(=O)[C@H](Cc3ccccc3Cl)NC(=O)Cc3ccc(O)cc3)cc2)C1=O [Compound 193]
100 to 1000	100 to 1000		O=C1CNC(=O)[C@@H](Cc2ccc(NC(=O)[C@H](Cc3ccccc3Cl)NC(=O)c3cnccn3)cc2)NC(=O)CC2(CCCC2)CC(=O)NCCCCCN1 [Compound 200]
< 100	< 100		O=C1CNC(=O)[C@@H](Cc2ccc(NC(=O)[C@H](Cc3ccccc3Cl)NC(=O)Cc3ccncc3)cc2)NC(=O)CC2(CCCC2)CC(=O)NCCCCCN1 [Compound 202]
< 100	< 100		O=C1CNC(=O)[C@@H](Cc2ccc(NC(=O)[C@H](Cc3ccccc3Cl)NC(=O)c3ccccc3F)cc2)NC(=O)CC2(CCCC2)CC(=O)NCCCCCN1 [Compound 203]
100 to 1000	< 100		O=C1CNC(=O)[C@@H](Cc2ccc(NC(=O)[C@H](Cc3ccccc3Cl)NC(=O)c3ccccc3Cl)cc2)NC(=O)CC2(CCCC2)CC(=O)NCCCCCN1 [Compound 204]
< 100	< 100		O=C1CNC(=O)[C@@H](Cc2ccc(NC(=O)[C@H](Cc3ccccc3Cl)NC(=O)c3ccc(Cl)cc3)cc2)NC(=O)CC2(CCCC2)CC(=O)NCCCCCN1 [Compound 205]
100 to 1000	< 100		O=C1CNC(=O)[C@@H](Cc2ccc(NC(=O)[C@H](Cc3ccccc3Cl)NC(=O)C3CCCCC3)cc2)NC(=O)CC2(CCCC2)CC(=O)NCCCCCN1 [Compound 207]
	< 100		O=C1CNC(=O)[C@@H](Cc2ccc(NC(=O)[C@H](Cc3ccccc3Cl)NC(=O)c3ccncc3)cc2)NC(=O)CC2(CCCC2)CC(=O)NCCCCCN1 [Compound 208]
	< 100		O=C1CNC(=O)[C@@H](Cc2ccc(NC(=O)[C@H](Cc3ccc(Cl)cc3Cl)NC(=O)Cc3ccccc3)cc2)NC(=O)CC2(CCCC2)CC(=O)NCCOCCN1 [Compound 210]
100 to 1000	100 to 1000		O=C1CNC(=O)[C@@H](Cc2ccc(NC(=O)[C@H](Cc3cccc(Cl)c3)NC(=O)Cc3ccccc3)cc2)NC(=O)CC2(CCCC2)CC(=O)OCCCCCN1 [Compound 212]
> 10000	100 to 1000		O=C1CNC(=O)[C@@H](Cc2ccc(NC(=O)[C@H](Cc3ccc(Cl)cc3)NC(=O)Cc3ccccc3)cc2)NC(=O)CC2(CCCC2)CC(=O)OCCCCCN1 [Compound 213]
< 100	< 100		O=C1CNC(=O)[C@@H](Cc2ccc(NC(=O)[C@H](Cc3ccccc3Cl)NC(=O)c3cccc(O)c3)cc2)NC(=O)CC2(CCCC2)CC(=O)NCCCCCN1 [Compound 214]
	< 100		O=C1CNC(=O)[C@@H](Cc2ccc(NC(=O)[C@H](Cc3ccccc3Cl)NC(=O)c3ccc(O)cc3)cc2)NC(=O)CC2(CCCC2)CC(=O)NCCCCCN1 [Compound 215]
1000 to 10000	100 to 1000		O=C1CCCC(=O)N[C@H](Cc2ccc(NC(=O)[C@H](Cc3ccccc3Cl)NC(=O)Cc3ccccc3)cc2)C(=O)NCC(=O)NCCCCCN1 [Compound 221]
< 100	< 100		CC1(C)CC(=O)NCCCCCNC(=O)CNC(=O)[C@@H](Cc2ccc(NC(=O)[C@H](Cc3ccccc3Cl)NC(=O)Cc3ccccc3)cc2)NC(=O)C1 [Compound 222]
	100 to 1000	100 to 1000	CC(C)(C)[C@H](NC(=O)Cc1ccccc1)C(=O)Nc1ccc(C[C@H]2NC(=O)CC3(CCCC3)CC(=O)NCCCCCNC(=O)CNC2=O)cc1 [Compound 231]
